Measurements taken from patent publication US10966426B2, “Herbicidal compositions comprising phenylpyrimidines” (BASF SE, priority 2016, dated 2021).
Like-named read-outs stand apart in the source and are kept apart here.

What was measured:
Type in all cases: in vivo
Poa annua = assay: greenhouse post-emergence treatment, POAAN; conditions: Poa annua, 480 h, 20 DAT, POAAN
In short: (§1)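 Mixtures formulated as 10% by weight emulsion concentrates, applied in water post-emergence to plants of 3–15 cm. Cool-season species held at 10-25° C., warm-season at 20-35° C.; rating 0 (no damage) to 100 (destruction).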

Alopecurus myosuroides = assay: greenhouse post-emergence treatment, ALOMY; conditions: Alopecurus myosuroides, 480 h, 20 DAT, ALOMY
In short: (§2)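 Pot trial in loamy sand with about 3.0% humus; plants sown in place or transplanted as seedlings a few days before treatment, kept at 10-25° C or 20-35° C by species, water as solvent. Damage scored 0 (none) to 100 (full destruction) over 2 to 4 weeks; combination expectation by Colby, E=X+Y−(X·Y/100).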

Papaver rhoeas = assay: greenhouse post-emergence treatment, PAPRH; conditions: Papaver rhoeas, 480 h, 20 DAT, PAPRH
In short: (§3)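 Seeds sown per species in pots of loamy sand; seedlings either grown in place or transplanted days before treatment. Post-emergence spray of water-based liquor at 3–15 cm height. Injury rated 0–100 over 2 to 4 weeks.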

Matricaria chamomilla = assay: greenhouse post-emergence treatment, MATCH; conditions: Matricaria chamomilla, 480 h, 70 gai/ha (SL 480 g/l), 20 DAT, MATCH, Table X7, read-out: % activity, solo application
In short: as §3

Helianthus annuus = assay: greenhouse post-emergence treatment, HELAN; conditions: Helianthus annuus, 480 h, 20 DAT, HELAN, dicamba SL 480 g/l solo 70 gai/ha
Procedure: The culture containers used were plastic pots containing loamy sand with approximately 3.0% of humus as substrate. The seeds of the test plants were sown separately for each species.
For the post-emergence treatment, the test plants were grown to a plant height of from 3 to 15 cm, depending on the plant habit, and only then treated with the active compounds which had been suspended or emulsified in water. To this end, the test plants were either sown directly, and grown in the same containers, or they were first grown separately as seedlings and transplanted into the test containers a few days prior to treatment.
Depending on the species, the plants were kept at 10-25° C. and 20-35° C., respectively.
The test period extended over 2 to 4 weeks. During this time, the plants were tended and their response to the individual treatments was evaluated.
Evaluation was carried out using a scale from 0 to 100. 100 means no emergence of the plants, or complete destruction of at least the above-ground parts, and 0 means no damage or normal course of growth. A good herbicidal activity is given at values of at least 70, and very good herbicidal activity is given at values of at least 85.
The respective stated components A and B, and if appropriate, C were formulated as a 10% by weight strength emulsion concentrate and, with addition of the amount of solvent system, introduced into the spray liquor used for applying the active compound. In the examples, the solvent used was water.
In the examples below, using the method of S. R. Colby (1967) “Calculating synergistic and antagonistic responses of herbicide combinations”, Weeds 15, p. 22ff., the value E, which is expected if the activity of the individual active compounds is only additive, was calculated. E=X+Y−(X·Y/100) where X=effect in percent using herbicide A at an application rate a; • Y=effect in percent using herbicide B at application rate b; • E=expected effect (in %) of herbicide A+herbicide B at application rates a+b.

Lolium multiflorum = assay: greenhouse post-emergence treatment, LOLMU; conditions: Lolium multiflorum, 480 h, 20 DAT, LOLMU
In short: as §2

Setaria viridis = assay: greenhouse post-emergence treatment, SETVI; conditions: Setaria viridis, 480 h, 35 gai/ha (SL 480 g/l), 20 DAT, SETVI, Table X7, read-out: % activity, solo application
In short: as §2

Galium aparine = assay: greenhouse post-emergence treatment, GALAP; conditions: Galium aparine, 480 h, 20 DAT, GALAP, dicamba SL 480 g/l solo 70 gai/ha
In short: as §3

Stellaria media = assay: greenhouse post-emergence treatment, STEME; conditions: Stellaria media, 480 h, 20 DAT, STEME, dicamba SL 480 g/l solo 35 gai/ha
In short: as §1

Echinocloa crus-galli = assay: greenhouse post-emergence treatment, ECHCG; conditions: Echinochloa crus-galli, 480 h, 20 DAT, ECHCG, dicamba SL 480 g/l solo 35 gai/ha
In short: as §3

Digitaria sanguinalis = assay: greenhouse post-emergence treatment, DIGSA; conditions: Digitaria sanguinalis, 480 h, 20 DAT, DIGSA
In short: as §2

Bromus sterilis = assay: greenhouse post-emergence treatment, BROST; conditions: Bromus sterilis, 480 h, 20 DAT, BROST
In short: as §2

Brachiaria decumbens = assay: greenhouse post-emergence treatment, BRADC; conditions: Urochloa decumbens, 480 h, 20 DAT, BRADC
In short: as §1

[1] = dicamba SL 480 g/l solo 17.5 gai/ha
[2] = dicamba SL 480 g/l solo 35 gai/ha
[3] = dicamba SL 480 g/l solo 70 gai/ha
[4] = dicamba SL 480 g/l solo 140 gai/ha
[5] = 35 gai/ha (SL 480 g/l), Table X7, read-out: % activity, solo application

SMILES: COc1c(Cl)ccc(Cl)c1C(=O)O [Dicamba, dicamba]
- inhibition at 17.5 g/ha (Poa annua; [1]): 0%
- inhibition at 35 g/ha (Poa annua; [2]): 0%
- inhibition at 70 g/ha (Poa annua; [3]): 0%
- inhibition at 140 g/ha (Poa annua; [4]): 0%
- inhibition at 140 g/ha (Alopecurus myosuroides; dicamba SL 480 g/l solo 140 gai/ha, read-out: % activity): 0%
- inhibition at 35 g/ha (Alopecurus myosuroides; [5]): 0%
- inhibition at 70 g/ha (Alopecurus myosuroides; 70 gai/ha (SL 480 g/l), Table X7, read-out: % activity, solo application): 0%
- inhibition at 140 g/ha (Alopecurus myosuroides; 140 gai/ha (SL 480 g/l), Table X7, read-out: % activity, solo application): 0%
- inhibition at 280 g/ha (Alopecurus myosuroides; 280 gai/ha (SL 480 g/l), Table X7, read-out: % activity, solo application): 5%
- inhibition at 17.5 g/ha (Papaver rhoeas; [1]): 20%
- inhibition at 35 g/ha (Papaver rhoeas; [2]): 30%
- inhibition at 70 g/ha (Matricaria chamomilla): 0%
- inhibition at 70 g/ha (Helianthus annuus): 85%
- inhibition at 17.5 g/ha (Lolium multiflorum; [1]): 0%
- inhibition at 35 g/ha (Lolium multiflorum; [2]): 0%
- inhibition at 35 g/ha (Setaria viridis): 0%
- inhibition at 70 g/ha (Galium aparine): 85%
- inhibition at 35 g/ha (Stellaria media): 80%
- inhibition at 35 g/ha (Echinocloa crus-galli): 0%
- inhibition at 17.5 g/ha (Digitaria sanguinalis; [1]): 0%
- inhibition at 35 g/ha (Digitaria sanguinalis; [2]): 0%
- inhibition at 70 g/ha (Digitaria sanguinalis; [3]): 0%
- inhibition at 140 g/ha (Digitaria sanguinalis; [4]): 30%
- inhibition at 17.5 g/ha (Bromus sterilis; [1]): 0%
- inhibition at 35 g/ha (Bromus sterilis; [2]): 0%
- inhibition at 70 g/ha (Bromus sterilis; [3]): 0%
- inhibition at 140 g/ha (Bromus sterilis; [4]): 0%
- inhibition at 17.5 g/ha (Brachiaria decumbens; [1]): 0%
- inhibition at 35 g/ha (Brachiaria decumbens; dicamba SL 480 g/l solo 35 gai/ha, read-out: % activity): 0%
- inhibition at 140 g/ha (Brachiaria decumbens; [4]): 30%
- inhibition at 35 g/ha (Brachiaria decumbens; [5]): 0%
